{
  "source": "patent US20070172444A1",
  "about": "“Hair tonics and method of screening the same” (Shiseido Company, Ltd., priority 2000, published 2007)",
  "key": {"human hair follicles": {"system": "human hair follicles", "assay": "Human hair follicle organ culture (hair extension, retention of hair bulb morphology)", "format": "cell-based", "settings": "for extension of hair: 7 days", "method": "Three antibiotics of penicillin, streptomycin and fungizone were added to the Williams E medium (Gibco), and the medium to which 10 ng/ml hydrocortisone, 10 μg/ml insulin, 10 ng/ml sodium pentaselenate and 10 μg/ml transferrin were further added was made the insulin-containing medium, and the medium to which they were not added was made the basal medium, and were used in a human hair follicle organ culture.\n(§1) Using a microtome under a stereoscopic microscope, hair follicles in the growth phase were isolated from a human scalp. The isolated hair follicles were washed in the basal medium followed by the measurement of length, and then immersed in the insulin-containing medium (a 24-well microplate was used; 1 ml per well), and was cultured overnight at 37° C. in an atmospheric condition containing 5% CO2. After measuring the length again, hair follicles of which length extension was 0.25 mm or longer and of which morphology in the growth phase was retained were selected, and were divided in groups of 10 to 12 pieces so that the length extension may become equal. For each group, the medium was changed to one containing test substances, and the culturing was continued under the above gas phase condition.\nThe extension of hair follicles was determined over time by inserting a micrometer into the eyepiece of an inverted microscope. Photographs of the whole hair follicles and hair bulbs were taken by a camera connected to the inverted microscope.\nOn the second day of culturing, the medium was changed to one in which TGF-β2 was added to a final concentration of 50 ng/ml, and the culturing was continued for five days while observing the extension of hair follicles and morphological changes. […] Thus, it was estimated that TGF-β2 has an effect of promoting the regression phase.\nThe method was performed in accordance with the human hair follicle organ culture method. On the second day of culturing, the medium was changed to one in which anti-TGF-β antibody (manufactured by Genzyme) having the effect of neutralizing TGF-β or the control mouse IgG were added to a final concentration of 20 μg/ml or 100 μg/ml, and culturing was continued for 4-7 days while observing the extension and morphological changes of hair follicles.\nThe medium was changed to one in which fetuin (final concentration: 1, 10, 50 μM) or the control bovine serum albumin (final concentration: 50 μM) was added to the basal medium, and culturing was continued for a further 7 days while observing the extension and morphological changes of hair follicles.\nas §1, with “that” for “that the”\nThe extension of hair follicles was determined with time by inserting a micrometer into the eyepiece of an inverted microscope. Photographs of the whole hair follicles and hair bulbs were taken by a camera connected to the inverted microscope.\nCarbobenzoxy-valyl-alanyl-β-methyl-aspar-1-yl-fluoromethane (z-VAD-fmk) is known to inhibit almost all caspases. […] The medium was changed to one in which z-VAD-fmk (final concentration: 1, 10, 100 μM) was dissolved in DMSO or the control DMSO was added to the basal medium, and culturing was continued for further 7 days while observing the extension and morphological changes of hair follicles. […]"}, "isolated human hair": {"system": "isolated human hair", "assay": "Extension of isolated human hair", "format": "cell-based", "settings": "phyllodulcin added to isolated human hair, vs control", "method": "The extension of hair when phyllodulcin was added to the isolated human hair was investigated. The result is as shown in a photograph in FIG. 20."}, "[1]": {"system": "human dermal papilla cells", "assay": "Cell survival by the Alamar Blue method", "format": "cell-based", "settings": "after 24 hours culture; 100% in the case of no addition", "method": "(§2) Then, the present inventors investigated, as described below, whether or not TGF-β2 has the effect of inhibiting the enhanced expression of PAI-1. Phyllodulcin was dissolved in DMSO at concentrations of 0.05-50 μg/ml and used. After culturing for 24 hours in a medium containing 1 ng/ml TGF-β2, 10 μl of the medium was used to determine the amount of PAI-1. At the end of culturing, the survival of cells was also determined by the Alamar Blue method.\nThis was performed as described below. Thus, after washing twice in a fresh medium, the medium was changed to one containing 1/10 amount of Alamar Blue (Alamar Bioscience), and was incubated at 37° C. (5% CO2) for four hours. After incubation, absorbance at 595 nm and 570 nm was measured by a microplate reader in order to calculate the Alamar Blue reduction rate for each well, which was divided by the Alamar Blue reduction rate for the negative control in which no phyllodulcin samples were added, and the survival of the cells were calculated."}, "TGF-β2": {"molecular_target": "T1, TGF-β2 (Homo sapiens, UniProt P61812)", "T1 construct": "host or cells: added to the culture medium of human dermal papilla cells", "T1 sequence (P61812 303-414 limits assumed)": "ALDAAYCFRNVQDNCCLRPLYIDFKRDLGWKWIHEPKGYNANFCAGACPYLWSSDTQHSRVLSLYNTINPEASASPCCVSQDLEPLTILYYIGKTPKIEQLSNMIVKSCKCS", "assay": "Determination of PAI-1 in human dermal papilla cells cultured with TGF-β2", "format": "cell-based", "method": "The inhibition of effect of TGF-β2 can be determined as follows. Utilizing the fact that TGF-β2 induces the production of PAI-1, cells (e.g., dermal papilla cells) are cultured in the coexistence of TGF-β2 and the test substance, PAI-1 in the medium is determined, and to determine whether or not PAI-1 was inhibited as compared to the control.\nThe medium in which 10% bovine fetal serum was added to the DMEM medium to which three antibiotics of penicillin, streptomycin and fungizone had been added was used, and human dermal papilla cells were cultured in a 96-well plate (about 7,500 cells per well). First, dose dependency on TGF-β2 of the increased expression of PAI-1 was examined. At a suitable cell density, the medium was changed to ones containing various concentrations of TGF-β2, and was further cultured for 24 hours. Ten μl of the medium was taken out, and quantitated using a commercially available PAI-1 determination kit (TintElize PAI-1: biopool).\nas §2, with “After culturing for 24 hours in a medium containing 1 ng/ml TGF-β2, 10 μl of the medium was used to determine the amount of PAI-1.” left out"}, "precursor caspase-3": {"system": "precursor caspase-3", "assay": "Detection of precursor and activated caspase-3 in Pam212 cells cultured with TNF α and CHX", "format": "cell-based, mouse", "settings": "TNF α and CHX added, incubated six hours, antibody detection", "excerpt": "The precursor caspase-3 was detected in almost all cells, whereas activated caspase-3 was not detected."}},
  "note": "Residues, ends and D or L forms follow the SMILES beside them. *: point of attachment. Cbz = O=C(OCc1ccccc1)*; CH2F = FC*",
  "data": [
    {"molecule": "COc1ccc([C@H]2Cc3cccc(O)c3C(=O)O2)cc1O", "note": "[phyllodulcin]", "values": [
      {"measurement": "hair extension", "setting": "human hair follicles; 0.6 μg/ml, eighth day of culturing, vs solvent control", "value": "significantly promoted"},
      {"measurement": "extension of hair", "setting": "isolated human hair", "value": "the hair is extended as compared to the control"},
      {"measurement": "Alamar Blue reduction rate (%)", "setting": "[1]", "value": 95, "unit": "%"},
      {"measurement": "amount of PAI-1", "setting": "TGF-β2; 1 ng/ml TGF-β2, 24 hours, 100 in the case of no addition, phyllodulcin 0.05-50 μg/ml", "value": 18}
    ]},
    {"molecule": "COC(=O)CC(NC(=O)C(C)NC(=O)C(NC(=O)OCc1ccccc1)C(C)C)C(=O)CF", "note": "(stereo not drawn) [z-VAD-fmk, Carbobenzoxy-valyl-alanyl-β-methyl-aspar-1-yl-fluoromethane] (Cbz-Val-Ala-Asp(OMe)-CH2F; configuration not given here)", "values": [
      {"measurement": "Ratio of hair follicles in which the morphology of the hair bulb portions was retained", "setting": "human hair follicles; Experiment 2 (day 4), 10 μM, control 12.5%", "value": "37.5% (3/8)"},
      {"measurement": "Ratio of hair follicles in which the morphology of the hair bulb portions was retained", "setting": "human hair follicles; Experiment 2 (day 6) as printed, 20 μM, control 20%", "value": "60% (6/10)"},
      {"measurement": "extension of hair", "setting": "human hair follicles; z-VAD-fmk 1, 10, 100 μM, vs control DMSO", "value": "significantly extended hair"},
      {"measurement": "activation of the precursor caspase-3", "setting": "precursor caspase-3", "value": "completely inhibit the activation of the precursor caspase-3"}
    ]},
    {"molecule": "TGF-β2: transforming growth factor β2", "values": [
      {"measurement": "regression phase-like morphological changes", "setting": "human hair follicles; TGF-β2 50 ng/ml, sixth day of culturing, vs non-added control", "value": "regression phase-like morphological changes were promoted"},
      {"measurement": "expression of PAI-1", "setting": "TGF-β2; various concentrations of TGF-β2, 24 hours", "value": "an increase in PAI-1 in a dose dependent manner"}
    ]},
    {"molecule": "fetuin", "values": [
      {"measurement": "extension of hair", "setting": "human hair follicles; fetuin 1, 10, 50 μM, vs control bovine serum albumin 50 μM", "value": "significantly extended hair"}
    ]}
  ]
}
